In data set [1] the test system is HCV Conl subgenomic replicon (GS4.1 cells). Description: HCV replicon assay (NS4A ELISA, HCV ELISA 2). The class given is cell-based. To be noted: Hepatitis C virus; GS4.1 cells, 72 hours, NS4A ELISA; read-out: HCV ELISA 2 EC50. Put shortly:
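Huh-7 GS4.1 replicon cells treated 72 h at 37° C. with ten 2-fold dilutions from 75 μM (or single 15 μM), 0.5% DMSO; NS4A measured by ELISA, absorbance 492 nm, replicon-free Huh-7 as negative control. EC50 by four-parameter sigmoidal fit. CC50 from same treatment by MTS-type Cell Titer 96 viability.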

The nature of data set [2]: Cytotoxicity evaluation in GS4.1 cells (Cell Titer 96 AQueous One Solution). The class given is cell-based. To be noted: human, 72 hours.
For data set [3], the system named is endogenous HBV polymerase activity. Kind of data set: HBV drug susceptibility assay (EPA read-out). To be noted: for SI: CC50/EC50, HBV Cell Assay (EPA Read-out); for EC50: HBV Cell Assay (EPA Read-out), collagen plates, read-out: Antiviral Activity (EC50 in μM). It is filed as cell-based. As for the experimental part: • a) Collagen-I coated cell culture plates were seeded with cells at a density of 0.25-0.5×10^6 cells per well in 2 ml of growth/selection media. • b) Drug stock solutions were made up freshly in 100% DMSO as 200× stocks. Seven 4-fold dilutions of test compound were prepared ranging from 2.5 μM to 0.0006 μM (final). Master drug dilutions were divided into 4 aliquots, and then stored at −20° C. until used. • c) One day after cells were seeded, drug treatments were initiated by adding 10 μl of drug dilution along with 2 ml of fresh growth/selection media. […] The no-drug control wells received 10 μl of DMSO in fresh media. • d) Cells were treated every-other-day with 2 ml of fresh drug combinations/medium for a total of 8 days. Cell lysates were then collected on day 10 as described below and endogenous polymerase assay were performed. Preparation of Nucleocapsid-Containing Lysates for Epa Analysis • a) Two days after the final drug treatment, cells were harvested. • b) Media was carefully aspirated and the cell monolayers were rinsed once with 1 ml of PBS. • c) 1 ml of lysis buffer (50 mM Tris-HCl pH 7.5/150 mM NaCl/5 mM MgCl2/0.2% NP-40) was added to each well. The detergent is required to strip the outer envelope from virions and to allow capture of the inner nucleocapsids. Plates were kept on ice for >30 min. • d) Lysed cells were transferred to 1.5 ml-microfuge tubes. • e) Lysates were clarified by spinning at room temperature for 5 min at 14,000 rpm. • f) Clarified lysates were transferred to fresh tubes and immediately frozen on dry-ice, then stored at −80° C. until endogenous polymerase assays can be performed as described below. Endogenous Polymerase Assay (EPA) of Cell Lysates • a) EPAs were performed essentially as described in Seifer, et al (1998). J. Virol. 72: 2765-2776. […] The detergent is required to enhance permeability of the nucleocapsids. • d) Following digestion with 1 mg/ml of Proteinase K for 1 hour at 37° C., endogenously ^33P-labeled HBV DNA was liberated via phenol/chloroform extraction. • e) The nucleic acids were then precipitated with one volume of 5 M NH4-acetate and 2.5 volumes 100% EtOH, and separated on a 1% native agarose gel in Tris-borate buffer. • f) Gels were blotted onto positively charged nylon membrane overnight at room temperature via capillary transfer in 0.4 N NaOH. • g) Dried membranes were exposed to a phosphoimager screen (GE Healthcare) overnight at room temperature, then scanned (Storm 860, GE Healthcare) and quantitated with ImageQuant software (GE Healthcare). • h) Dose-response curves were generated using XLfit 4.1 software. The mean effective drug concentrations that inhibit endogenous HBV polymerase activity by 50% were calculated from several independent experiments. Cytotoxicity Determination

The nature of data set [4]: In vitro cytotoxicity assay in HepG2 cells (MTS). The class given is cell-based. To be noted: human, collagen plates. How it is done: (§1) A standard in vitro cytotoxicity assay was performed in HepG2 cells. Cells were exposed to drug for 9 days. Cell viability was determined via MTS staining using a CellTiter 96 Aqueous One Solution cell proliferation assay according to the manufacturer's instructions. • a) HepG2 cells were seeded in 96-well tissue culture plates in 100 μl fresh growth media at 7×10^3 cells per well. • b) Drug stock solutions were made up in 100% DMSO as 400× stock solutions and stored at −20° C. until used. • c) Four hours after cells were plated the drug dilutions were prepared and then added to the cells. Cells received up to 100 μM of drug in a total of 200 μl of fresh growth media containing 0.25% DMSO. Control wells received growth media with 0.25% DMSO growth media. Plates were incubated at 37° C., 5% CO2. • d) Cells were treated every-other-day with fresh growth media and fresh drug dilutions for a total of 8 days as described above. • e) On day 9, cell viability of HepG2 cells was determined by adding 20 μl of MTS CellTiter 96 Aqueous One Solution.

Data set [5] relates to wild-type HBV (intracellular nucleocapsids). Kind of data set: Anti-HBV activity in HBV nucleocapsids (RI) via endogenous polymerase assay (EPA). The class given is cell-based. To be noted: Hepatitis B virus; wild-type HBV producer cell line, intracellular nucleocapsids, EPA; read-out: RI EC50. As for the experimental part:
Compounds were tested in an anti-HBV assay. Determination of anti-HBV activity in HBV virions and nucleocapsids via endoenous polymerase assays (EPA)
• 1. 12-well collagen-I coated plates were seeded with producer cells expressing wild-type HBV at a density of 0.5-1×10^6 cells per well in 2 ml growth/selection media. • 2. Drug stock solutions were made up freshly in 100% DMSO as 200× stocks. Five additional 4-fold dilutions were prepared from these 200× stock in 100% DMSO. For each experiment, 4 aliquots of each drug dilution series were stored at −20° C. until used. • 3. Once cells reached confluency (1 day after cells were seeded), drug treatment was initiated by adding 10 μl of drug dilution into 2 ml of fresh growth/selection media. […] The no-drug control wells received only 10 μl of DMSO in fresh media. • 4. Cells were treated every-other-day with 2 ml of fresh drug/medium for a total of 8 days. Cell lysates were then collected on day 10 and subjected to EPA analysis as described below. Preparation of Nucleocapsid-Containing Lysates for Epa Analysis • 1. Cells were grown for 3 to 4 days in 12-well collagen-I coated plates until confluent. • 2. Media was carefully aspirated and the cell monolayers were rinsed once with 1 ml of PBS. • 3. One ml of lysis buffer (50 mM Tris-HCl pH 7.5/150 mM NaCl/5 mM MgCl2/0.2% NP-40) was added to each well. Plates were stored on ice for 30 min to 4 h. • 4. Lysed cells were transferred to 1.5 ml-microfuge tubes. • 5. Lysates were clarified by spinning at 14,000 rpm for 5 min at room temperature. • 6. Clarified lysates were transferred to fresh tubes and immediately frozen on dry-ice, then stored at −80° C. until endogenous polymerase assays were performed as described below. Preparation of Secreted Virions from Supernatant for Epa Analysis • 1. Cells were grown for 3 to 4 days in 12-well collagen-I coated plates until confluent. • 2. Media was carefully aspirated and transferred to 1.5 ml-microfuge tubes. • 3. Supernatants were clarified by spinning at 14,000 rpm for 5 min at room temperature. • 4. Clarified supernatants were transferred to fresh tubes and immediately frozen on dry-ice, then stored at −80° C. until endogenous polymerase assays were performed essentially as described below. Endogenous Polymerase Assay (EPA) of Cell Lysates and Supernatants • 1. EPAs were performed essentially as described by Seifer et al (1998). Intracellular HBV nucleocapsids were immunoprecipitated from the cytoplasmic lysates overnight at 4° C. with a polyclonal rabbit anti-HBcAg antibody and immobilized on protein A sepharose CL-4B beads. Secreted virions were immunoprecipitated from clarified cell supernatants overnight at 4° C. with a monoclonal mouse anti-LS antibody (MA18/7) in the absence of detergent. • 2. Following 3 washes of the immobilized capsids or virions with 1 ml of EPA wash buffer (75 mM NH4Cl, 50 mM Tris-HCl pH 7.4, 1 mM EDTA), endogenous polymerase reactions were initiated by adding 50 μl of detergent-containing EPA cocktail (50 mM Tris-HCl pH7.4, 75 mM NH4Cl, 1 mM EDTA, 20 mM MgCl2, 0.1 mM β-ME, 0.5% NP-40, 100 μM cold dGTP, TTP, dCTP, and 50 nM ^33P-dATP) and incubated overnight at 37° C. The detergent is required to strip the outer envelope from immunoprecipitated virions as well as to enhance permeability of the nucleocapsids. • 3. Following digestion with 1 mg/ml of proteinase K for 1 h at 37° C., endogenously ^33P-labeled HBV DNA was liberated via phenol/chloroform extraction. • 4. The nucleic acids were precipitated with 1 volume of 5M NH4-acetate and 2.5 volumes of 100% EtOH, and then separated on a 1% native agarose gel in Tris-borate-EDTA buffer. • 5. Gels were blotted onto positively charged nylon membrane overnight at room temperature via capillary transfer in 0.4 N NaOH. • 6. Dried membranes were exposed to a Phosphorlmager screen (GE Healthcare) overnight at room temperature, then scanned (Storm 860, GE Healthcare) and quantitated with ImageQuant software (GE Healthcare). • 7. […]

The subject of a further data set is HepG2 cells. Kind of data set: In vitro cytotoxicity assay in HepG2 cells (MTS). The class given is cell-based. To be noted: 9 days, collagen plates. As for the experimental part: as §1
The test system of a further data set is HBV wt (HepG2). Description: Anti-HBV activity in HBV-infected HepG2 cells. The class given is cell-based. To be noted: N=3. How it is done:
The compound of Example 1 (NM 204) (Hydroxy-tBuSATE N-benzylphosphoramidate derivative of L-ddA) (A550) was contacted with HBV-infected HepG2 cells. EC50 values were measured according to standard techniques.

Consider four compounds from patent US7951789B2 (priority 2006, dated 2011).

Read-outs that look alike come from different tables or passages of the source.

Compound `CC(C)(CO)C(=O)SCCOP(=O)(NCc1ccccc1)OC[C@H]1O[C@@H](n2ccc(N)nc2=O)[C@]2(C)OC(=O)O[C@H]12` (stereo partly drawn) [Example B302, Hydroxy-tBuSATE N-benzylphosphoramidate 2′,3′-cyclic carbonate Derivative of 2′-C-methylcytidine] had a melting point of 100 to 102 °C. Also, in data set [1], the EC50 lay in the range of 1 to 10 µM. In data set [2], this compound showed a CC50 greater than 75 µM.

Turning to `CC(C)(CO)C(=O)SCCOP(=O)(COCCn1cnc2c(N)ncnc21)NCc1ccccc1` (stereo not drawn) [Example B261, Hydroxy-tBuSATE N-benzylphosphonamidate Derivative of PMEA], the SI in data set [3] is recorded as 1,225. Besides, the EC50 in data set [3] (Hepatitis B virus) was 0.016 ± 0.004 µM; in data set [5], less than 1 µM. The midpoint of cytotoxicity in data set [4], the CC50 at 9 days, lay at 19.6 µM.

In the case of `Cc1cn([C@@H]2C[C@@H](O)[C@H](CO)O2)c(=O)[nH]c1=O` [LdT], in data set [3], the SI is greater than 273 and the EC50 was 0.366 ± 0.056 µM. Also, the CC50 with HepG2 cells is greater than 100 µM. Further, the midpoint of the response in the data set on HBV wt (HepG2), the EC50, lay at 0.26 ± 0.048 µM.

For the compound `Nc1ncnc2c1ncn2CCOCP(=O)(O)O` [PMEA], in data set [3], the SI is recorded as greater than 310. Moreover, the figures for the EC50 in data set [3] (Hepatitis B virus) and in data set [5] were 0.328 ± 0.082 µM and less than 1 µM, respectively. Moreover, the CC50 at 9 days in data set [4] was greater than 100 µM.
